Source: US10934310B2, “Inhibitors of Bruton's tyrosine kinase and method of their use” (JANSSEN PHARMACEUTICA NV, priority 2015, dated 2021)

Target: unphosphorylated-BTK kinase domain (UP-BTK), GST-tagged human BTK (389-659aa) (Homo sapiens (Human), UniProt Q06187)
Test: BTK Kinase Lanthascreen Binding Assay
Conditions: Lanthascreen binding, 60 minutes incubation; pIC50 = negative log of the IC50 in molar
Description: BTK Kinase Lanthascreen Binding Assay:
A BTK kinase lanthascreen binding assay monitors compound binding to unphosphorylated-BTK kinase domain (UP-BTK), by competing with a fluorescent labeled tracer. […] Data were analyzed using Xlfit™ version 5.3 from ID Business Solutions (Guildford), Microsoft Excel add-in. pIC50 refers to the negative log of the IC50 in molar.

Chain of unphosphorylated-BTK kinase domain (UP-BTK), GST-tagged human BTK (389-659aa) (Q06187 389-659): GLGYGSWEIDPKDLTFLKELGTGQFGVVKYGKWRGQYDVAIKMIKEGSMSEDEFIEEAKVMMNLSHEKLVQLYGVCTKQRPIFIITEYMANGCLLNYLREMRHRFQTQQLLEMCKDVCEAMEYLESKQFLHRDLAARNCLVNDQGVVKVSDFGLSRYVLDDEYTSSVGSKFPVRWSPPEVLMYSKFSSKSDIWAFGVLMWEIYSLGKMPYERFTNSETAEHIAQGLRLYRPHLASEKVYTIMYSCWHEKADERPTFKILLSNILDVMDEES

| BTK_I_binding pIC50 | SMILES |
| --- | --- |
| 7.84 | C=CC(=O)N[C@H]1CCC[C@H]1NC(=O)c1sc2nccc3c2c1NC(=O)N3c1ccc(Oc2cccnn2)cc1C [Example 305, N-((1R,2S)-2-Acrylamidocyclopentyl)-5-(2-methyl-4-(pyridazin-3-yloxy)phenyl)-4-oxo-4,5-dihydro-3H-1-thia-3,5,8-triazaacenaphthylene-2-carboxamide] |
| 7.58 | C=CC(=O)N[C@@H]1CCC[C@H]1NC(=O)c1sc2nccc3c2c1NC(=O)N3c1ncc(Oc2ccccc2)cn1 [Example 307, N-((1R,2R)-2-Acrylamidocyclopentyl)-4-oxo-5-(5-phenoxypyrimidin-2-yl)-4,5-dihydro-3H-1-thia-3,5,8-triazaacenaphthylene-2-carboxamide] |
| 8.04 | C=CC(=O)N[C@H]1CCC[C@H]1NC(=O)c1sc2nccc3c2c1NC(=O)N3c1cnc(Oc2ccccc2)nc1 [Example 310, N-((1R,2S)-2-Acrylamidocyclopentyl)-4-oxo-5-(2-phenoxypyrimidin-5-yl)-4,5-dihydro-3H-1-thia-3,5,8-triazaacenaphthylene-2-carboxamide] |
| 7.57 | C=CC(=O)N[C@@H]1CCC[C@H]1NC(=O)c1sc2nccc3c2c1NC(=O)N3c1cnc(Oc2ccccc2)cn1 [Example 311, N-((1R,2R)-2-Acrylamidocyclopentyl)-4-oxo-5-(5-phenoxypyrazin-2-yl)-4,5-dihydro-3H-1-thia-3,5,8-triazaacenaphthylene-2-carboxamide] |
| 7.14 | C=CC(=O)N[C@@H]1CCC[C@H]1NC(=O)c1sc2nccc3c2c1NC(=O)N3c1cnc(Oc2ccccc2)nc1 [Example 314, N-((1R,2R)-2-Acrylamidocyclopentyl)-4-oxo-5-(2-phenoxypyrimidin-5-yl)-4,5-dihydro-3H-1-thia-3,5,8-triazaacenaphthylene-2-carboxamide] |
| 7.21 | C=CC(=O)N[C@@H]1CC[C@H](NC(=O)c2sc3nccc4c3c2NC(=O)N4c2cnc(Oc3ccccc3)nc2)C1 [Example 319, N-((1S,3R)-3-Acrylamidocyclopentyl)-4-oxo-5-(2-phenoxypyrimidin-5-yl)-4,5-dihydro-3H-1-thia-3,5,8-triazaacenaphthylene-2-carboxamide] |
| 7.23 | C=CC(=O)N[C@H]1CCC[C@H]1NC(=O)c1sc2nccc3c2c1NC(=O)N3c1cc(-c2ccccc2)cnn1 [Example 320, N-((1R,2S)-2-Acrylamidocyclopentyl)-4-oxo-5-(5-phenylpyridazin-3-yl)-4,5-dihydro-3H-1-thia-3,5,8-triazaacenaphthylene-2-carboxamide] |
| 6.90 | C=CC(=O)N[C@@H]1CCC[C@H]1NC(=O)c1sc2nccc3c2c1NC(=O)N3c1cccc(-c2cccnc2)c1 [Example 324, N-((1R,2R)-2-Acrylamidocyclopentyl)-4-oxo-5-(3-(pyridin-3-yl)phenyl)-4,5-dihydro-3H-1-thia-3,5,8-triazaacenaphthylene-2-carboxamide] |
| 7.07 | C=CC(=O)N[C@H]1CCC[C@H]1NC(=O)c1sc2nccc3c2c1NC(=O)N3c1ccnc(-c2ccccn2)c1 [Example 325, 5-([2,2′-Bipyridin]-4-yl)-N-((1R,2S)-2-acrylamidocyclopentyl)-4-oxo-4,5-dihydro-3H-1-thia-3,5,8-triazaacenaphthylene-2-carboxamide] |
| 6.98 | C=CC(=O)N[C@@H]1CCC[C@H]1NC(=O)c1sc2nccc3c2c1NC(=O)N3c1cccc(-c2ccccn2)c1 [Example 327, N-((1R,2R)-2-Acrylamidocyclopentyl)-4-oxo-5-(3-(pyridin-2-yl)phenyl)-4,5-dihydro-3H-1-thia-3,5,8-triazaacenaphthylene-2-carboxamide] |
| 6.69 | C=CC(=O)N[C@H]1CCC[C@H]1NC(=O)c1sc2nccc3c2c1NC(=O)N3c1cnc(NC(C)C)cc1C [Example 330, N-((1R,2S)-2-Acrylamidocyclopentyl)-5-(6-(isopropylamino)-4-methylpyridin-3-yl)-4-oxo-4,5-dihydro-3H-1-thia-3,5,8-triazaacenaphthylene-2-carboxamide] |
| 6.01 | CC(C)c1cc(N2C(=O)Nc3c(C(=O)N[C@@H]4CCC[C@H]4N)sc4nccc2c34)ccn1 [Example 336, N-((1R,2R)-2-Aminocyclopentyl)-5-(2-isopropylpyridin-4-yl)-4-oxo-4,5-dihydro-3H-1-thia-3,5,8-triazaacenaphthylene-2-carboxamide] |
| 6.42 | C=CC(=O)N[C@@H]1CCC[C@H]1NC(=O)c1sc2nccc3c2c1NC(=O)N3c1ccnc(C(C)C)c1 [Example 337, N-((1R,2R)-2-Acrylamidocyclopentyl)-5-(2-isopropylpyridin-4-yl)-4-oxo-4,5-dihydro-3H-1-thia-3,5,8-triazaacenaphthylene-2-carboxamide] |
| 6.39 | C=CC(=O)N[C@@H]1CCCC[C@H]1NC(=O)c1sc2nccc3c2c1NC(=O)N3c1cnc(Oc2ccccc2)nc1 [Example 338, N-((1R,2R)-2-Acrylamidocyclohexyl)-4-oxo-5-(2-phenoxypyrimidin-5-yl)-4,5-dihydro-3H-1-thia-3,5,8-triazaacenaphthylene-2-carboxamide] |
| 6.12 | C=CC(=O)N[C@@H]1CCC[C@H]1NC(=O)c1sc2nccc3c2c1NC(=O)N3c1ccnc(-c2ccccn2)c1 [Example 342, 5-([2,2′-Bipyridin]-4-yl)-N-((1R,2R)-2-acrylamidocyclopentyl)-4-oxo-4,5-dihydro-3H-1-thia-3,5,8-triazaacenaphthylene-2-carboxamide] |
| 7.54 | C=CC(=O)N[C@H]1CCC[C@H]1NC(=O)c1sc2nccc3c2c1NC(=O)N3c1ccc(Oc2cccnc2C)cc1C [Example 367, N-((1R,2S)-2-acrylamidocyclopentyl)-5-(2-methyl-4-((2-methylpyridin-3-yl)oxy)phenyl)-4-oxo-4,5-dihydro-3H-1-thia-3,5,8-triazaacenaphthylene-2-carboxamide] |
| 8.13 | C=CC(=O)N[C@H]1CCC[C@H]1NC(=O)c1sc2nccc3c2c1NC(=O)N3c1ccc(Oc2cccc(C)n2)cc1C [Example 368, N-((1R,2S)-2-acrylamidocyclopentyl)-5-(2-methyl-4-((6-methylpyridin-2-yl)oxy)phenyl)-4-oxo-4,5-dihydro-3H-1-thia-3,5,8-triazaacenaphthylene-2-carboxamide] |
| 8.06 | C=CC(=O)N[C@H]1CCC[C@H]1NC(=O)c1sc2nccc3c2c1NC(=O)N3c1ccc(Oc2cccc(C)n2)cc1 [Example 369, N-((1R,2S)-2-Acrylamidocyclopentyl)-5-(4-((6-methylpyridin-2-yl)oxy)phenyl)-4-oxo-4,5-dihydro-3H-1-thia-3,5,8-triazaacenaphthylene-2-carboxamide] |
| 7.79 | C=CC(=O)N[C@H]1CCC[C@H]1NC(=O)c1sc2nccc3c2c1NC(=O)N3c1ccc(Oc2ccc(C)nc2)cc1 [Example 370, N-((1R,2S)-2-Acrylamidocyclopentyl)-5-(4-((6-methylpyridin-3-yl)oxy)phenyl)-4-oxo-4,5-dihydro-3H-1-thia-3,5,8-triazaacenaphthylene-2-carboxamide] |
| 7.93 | C=CC(=O)N[C@H]1CCC[C@H]1NC(=O)c1sc2nccc3c2c1NC(=O)N3c1ccc(Oc2cccnc2C)cc1 [Example 372, N-((1R,2S)-2-Acrylamidocyclopentyl)-5-(4-((2-methylpyridin-3-yl)oxy)phenyl)-4-oxo-4,5-dihydro-3H-1-thia-3,5,8-triazaacenaphthylene-2-carboxamide] |
| 7.81 | C=CC(=O)N[C@H]1CCC[C@H]1NC(=O)c1sc2nccc3c2c1NC(=O)N3c1ccnc(C2CCC2)c1 [Example 376, N-((1R,2S)-2-Acrylamidocyclopentyl)-5-(2-cyclobutylpyridin-4-yl)-4-oxo-4,5-dihydro-3H-1-thia-3,5,8-triazaacenaphthylene-2-carboxamide] |
| 6.80 | C=CC(=O)N[C@@H]1CCC[C@H]1NC(=O)c1sc2nccc3c2c1NC(=O)N3c1ccnc(C2CCC2)c1 [Example 379, N-((1R,2R)-2-Acrylamidocyclopentyl)-5-(2-cyclobutylpyridin-4-yl)-4-oxo-4,5-dihydro-3H-1-thia-3,5,8-triazaacenaphthylene-2-carboxamide] |

| SMILES | BTK_I_binding pIC50 |
| --- | --- |
| C=CC(=O)N[C@H]1CCC[C@H]1NC(=O)c1sc2nccc3c2c1NC(=O)N3c1ccnc(-c2cccnc2)c1 [Example 317, 5-([2,3′-Bipyridin]-4-yl)-N-((1R,2S)-2-acrylamidocyclopentyl)-4-oxo-4,5-dihydro-3H-1-thia-3,5,8-triazaacenaphthylene-2-carboxamide] | 7.74 |
| C=CC(=O)N[C@@H]1CCC[C@H]1NC(=O)c1sc2nccc3c2c1NC(=O)N3c1ccnc(-c2cccnc2)c1 [Example 326, 5-([2,3′-Bipyridin]-4-yl)-N-((1R,2R)-2-acrylamidocyclopentyl)-4-oxo-4,5-dihydro-3H-1-thia-3,5,8-triazaacenaphthylene-2-carboxamide] | 6.72 |

Same assay, conditions: read-out: BTK_I_binding pIC50 (converted)

| IC50 [nM] | SMILES |
| --- | --- |
| > 1000 | N[C@H]1CCC[C@H]1NC(=O)c1sc2nccc3c2c1NC(=O)N3c1cc(-c2ccccc2)cnn1 [Example 349, N-((1R,2S)-2-Aminocyclopentyl)-4-oxo-5-(5-phenylpyridazin-3-yl)-4,5-dihydro-3H-1-thia-3,5,8-triazaacenaphthylene-2-carboxamide] |
| > 1000 | C=CC(=O)N[C@@H]1CCC[C@H](NC(=O)c2sc3nccc4c3c2NC(=O)N4c2ccnc(-c3ccccc3)c2)C1 [Example 351, N-((1S,3R)-3-Acrylamidocyclohexyl)-4-oxo-5-(2-phenylpyridin-4-yl)-4,5-dihydro-3H-1-thia-3,5,8-triazaacenaphthylene-2-carboxamide] |
